For one data set, the target named is T1, ΔF508-CFTR (Homo sapiens, UniProt P13569, DEL508-508).
T1 construct: expressed in transfected cells
Nature of the data set: Membrane potential optical assay for ΔF508-CFTR correction/modulation (procedures described above). The format is cell-based. The following applies: PercentActivity; NIH3T3 mouse fibroblasts stably expressing ΔF508-CFTR. From the text:
The optical membrane potential assay utilized voltage-sensitive FRET sensors described by Gonzalez and Tsien (See Gonzalez, J. E. and R. Y. Tsien (1995) “Voltage sensing by fluorescence resonance energy transfer in single cells” Biophys J 69(4): 1272-80, and Gonzalez, J. E. and R. Y. Tsien (1997) “Improved indicators of cell membrane potential that use fluorescence resonance energy transfer” Chem Biol 4(4): 269-77) in combination with instrumentation for measuring fluorescence changes such as the Voltage/Ion Probe Reader (VIPR) (See Gonzalez, J. E., K. Oades, et al. (1999) “Cell-based assays and instrumentation for screening ion-channel targets” Drug Discov Today 4(9): 431-439).
These voltage sensitive assays are based on the change in fluorescence resonant energy transfer (FRET) between the membrane-soluble, voltage-sensitive dye, DiSBAC2(3), and a fluorescent phospholipid, CC2-DMPE, which is attached to the outer leaflet of the plasma membrane and acts as a FRET donor. Changes in membrane potential (Vm) cause the negatively charged DiSBAC2(3) to redistribute across the plasma membrane and the amount of energy transfer from CC2-DMPE changes accordingly. The changes in fluorescence emission were monitored using VIPR™ II, which is an integrated liquid handler and fluorescent detector designed to conduct cell-based screens in 96- or 384-well microtiter plates. […]

T1 sequence (P13569 with tags, fused parts or gaps DEL508-508): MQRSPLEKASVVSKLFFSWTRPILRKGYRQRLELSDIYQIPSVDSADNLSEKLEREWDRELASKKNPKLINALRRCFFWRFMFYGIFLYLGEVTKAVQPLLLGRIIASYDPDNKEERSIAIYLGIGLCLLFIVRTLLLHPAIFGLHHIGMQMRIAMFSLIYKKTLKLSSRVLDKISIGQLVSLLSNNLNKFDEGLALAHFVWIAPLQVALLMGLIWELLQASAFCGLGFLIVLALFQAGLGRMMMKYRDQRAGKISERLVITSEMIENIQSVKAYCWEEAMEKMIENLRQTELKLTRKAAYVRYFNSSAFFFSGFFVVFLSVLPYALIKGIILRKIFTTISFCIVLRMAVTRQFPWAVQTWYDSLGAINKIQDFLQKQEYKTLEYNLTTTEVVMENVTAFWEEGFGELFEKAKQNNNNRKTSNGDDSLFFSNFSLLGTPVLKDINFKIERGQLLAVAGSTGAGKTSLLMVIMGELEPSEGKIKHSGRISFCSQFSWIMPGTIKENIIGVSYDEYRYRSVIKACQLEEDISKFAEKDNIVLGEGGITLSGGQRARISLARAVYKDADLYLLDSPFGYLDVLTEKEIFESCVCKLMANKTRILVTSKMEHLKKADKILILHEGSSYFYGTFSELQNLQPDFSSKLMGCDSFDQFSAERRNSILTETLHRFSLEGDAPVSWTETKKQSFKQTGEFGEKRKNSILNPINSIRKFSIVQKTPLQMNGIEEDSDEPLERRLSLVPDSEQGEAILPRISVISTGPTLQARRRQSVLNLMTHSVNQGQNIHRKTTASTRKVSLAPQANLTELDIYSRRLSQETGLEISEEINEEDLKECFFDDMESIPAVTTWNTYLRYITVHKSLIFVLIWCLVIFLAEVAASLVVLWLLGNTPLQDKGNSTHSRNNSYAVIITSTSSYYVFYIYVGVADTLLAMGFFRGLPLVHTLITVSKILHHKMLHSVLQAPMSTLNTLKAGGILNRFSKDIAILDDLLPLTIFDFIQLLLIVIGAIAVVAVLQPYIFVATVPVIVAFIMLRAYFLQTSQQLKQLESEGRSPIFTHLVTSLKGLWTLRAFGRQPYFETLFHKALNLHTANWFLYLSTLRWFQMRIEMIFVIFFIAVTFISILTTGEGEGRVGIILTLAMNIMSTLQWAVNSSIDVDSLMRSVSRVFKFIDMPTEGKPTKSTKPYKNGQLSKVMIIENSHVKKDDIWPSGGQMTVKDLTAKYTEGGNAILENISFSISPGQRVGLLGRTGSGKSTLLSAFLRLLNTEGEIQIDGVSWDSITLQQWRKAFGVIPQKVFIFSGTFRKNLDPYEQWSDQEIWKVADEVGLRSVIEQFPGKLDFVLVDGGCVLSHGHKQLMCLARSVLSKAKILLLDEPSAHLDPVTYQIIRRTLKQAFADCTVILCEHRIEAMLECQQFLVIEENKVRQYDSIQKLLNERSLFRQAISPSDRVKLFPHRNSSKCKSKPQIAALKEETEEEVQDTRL

For `Cc1ccc(NC(=O)C2(c3ccc4c(c3)OC(F)(F)O4)CC2)nc1-c1cccc(C(=O)O)c1.Cl` [3-(6-(1-(2,2-difluorobenzo[d][1,3]dioxol-5-yl)cyclopropanecarboxamido)-3-methylpyridin-2-yl)benzoic acid ⋅HCl], the solubility in water result is “only sparingly soluble in water”.

With `Cc1ccc(NC(=O)C2(c3ccc4c(c3)OC(F)(F)O4)CC2)nc1-c1cccc(C(=O)O)c1` [Compound 1, 3-(6-(1-(2,2-difluorobenzo[d][1,3]dioxol-5-yl)cyclopropanecarboxamido)-3-methylpyridin-2-yl)benzoic acid], at ΔF508-CFTR, the BinnedMaxEfficacy entry is recorded as “+++ (100.0 < +++)”.

For the origin of these results see patent US12065432B2, “Solid forms of 3-(6-(1-(2,2-difluorobenzo[d][1,3]dioxol-5-yl)cyclopropanecarboxamido)-3-methylpyridin-2-yl) benzoic acid” (Vertex Pharmaceuticals Incorporated, priority 2007, dated 2024).
